According to PubChem BioAssay (NCI):
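1) Cells in 96-well plates. 2) Compound, 48 h, 5 concentrations. 3) Linear interpolation between surrounding doses. 4) Unreached endpoint = highest concentration. Here, GI50 denotes the concentration required for 50% inhibition of growth. TGI denotes the concentration required for complete inhibition of growth.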

Legend:
Experiment in all cases: NCI-60 cell line screen, 48 h
[1] = test system: U251 CNS
[2] = test system: MALME-3M melanoma
[3] = test system: UO-31 renal
[4] = test system: TK-10 renal
[5] = test system: UACC-62 melanoma
[6] = test system: SR leukemia
[7] = test system: HOP-92 NSCLC
[8] = test system: BT-549 breast
[9] = test system: MDA-MB-435
[10] = test system: PC-3 prostate

SMILES	TGI [1]	TGI [2]	TGI [3]	TGI [4]	TGI [5]	TGI [6]	TGI [7]	GI50 [8]	TGI [8]	GI50 [9]	TGI [9]	GI50 [1]	GI50 [2]	GI50 [3]	GI50 [10]	TGI [10]	GI50 [4]	GI50 [5]	GI50 [7]	GI50 [6]
COC(=O)C(CC(=O)c1c[nH]c2ccccc12)c1c[nH]c2ccccc12 (stereo unspecified)	50.4 µM	52.3 µM	39.3 µM	76.9 µM	> 10 µM	–	–	–	–	–	–	–	–	–	–	–	–	–	–	–
ClCc1ccc(C2OCCO2)cc1	17.2 µM	49.9 µM	> 56.2 µM	> 75.3 µM	> 52 µM	> 79.7 µM	38.2 µM	–	–	–	–	–	–	–	–	–	–	–	–	–
CC1=NOC(=O)C1N=Nc1ccc(Br)c(C)c1 (stereo unspecified)	37.8 µM	33.3 µM	–	33.2 µM	37.7 µM	–	34.4 µM	–	–	–	–	–	–	–	–	–	–	–	–	–
N#Cc1c(C[n+]2ccccc2)c2ccccc2oc1=O	> 100 µM	> 100 µM	> 100 µM	–	> 100 µM	> 100 µM	–	–	–	–	–	–	–	–	–	–	–	–	–	–
Nc1ccc(C(=O)CC2(O)C(=O)Nc3c(Cl)cc(Cl)cc32)cc1 (stereo unspecified)	95.7 µM	> 100 µM	> 100 µM	> 100 µM	–	–	> 100 µM	–	–	–	–	–	–	–	–	–	–	–	–	–
O=C1CCN2CCC(=O)c3c2c(cc2ccccc32)N1	> 100 µM	> 100 µM	> 100 µM	> 100 µM	> 100 µM	–	–	–	–	–	–	–	–	–	–	–	–	–	–	–
COc1cc(/C=C/c2ccc(OC)c(OC)c2OC)cc(OC)c1OC	36.2 µM	48.7 µM	46.3 µM	> 82.9 µM	28.1 µM	78.5 µM	31.8 µM	–	–	–	–	–	–	–	–	–	–	–	–	–
Cc1c(Cl)cccc1NC(=O)/C(Cl)=C(\Cl)C(=O)O	32.7 µM	32.2 µM	32.7 µM	35.2 µM	26.6 µM	39.6 µM	31.6 µM	–	–	–	–	–	–	–	–	–	–	–	–	–
CC(C)(C)n1cc(-c2ccnc(NCCCNS(=O)(=O)c3ccc(Br)cc3)c2)c(-c2cccc(O)c2)n1	3.66 µM	3.24 µM	3.89 µM	6.62 µM	3.06 µM	–	3.43 µM	1.5 µM	2.98 µM	1.82 µM	3.29 µM	1.65 µM	1.66 µM	1.66 µM	1.6 µM	4.08 µM	2.51 µM	1.59 µM	1.56 µM	–
CCOC(=O)Cc1csc(N=Nc2c(O)[nH]c3ccccc23)n1	> 100 µM	–	> 100 µM	> 100 µM	> 100 µM	–	> 100 µM	–	> 100 µM	–	> 100 µM	–	–	–	–	> 100 µM	–	–	–	–
CC1=C(/C=C/C(C)=C/C=C/C(C)=C/C=C/C=C(C)/C=C/C=C(C)/C=C/C2=C(C)C(=O)C(O)CC2(C)C)C(C)(C)CC(O)C1=O (stereo unspecified)	> 100 µM	> 100 µM	> 100 µM	> 100 µM	> 100 µM	> 100 µM	> 100 µM	–	–	–	–	–	–	–	–	–	–	–	–	–
S=P(N1CCCC1)(N1CC1)N1CC1	> 100 µM	> 100 µM	> 100 µM	> 100 µM	> 100 µM	> 100 µM	–	–	–	–	–	–	–	–	–	–	–	–	–	–
COc1ccc(N2C(=O)C3c4[nH]c5ccccc5c4C4CCCCCCC4C3C2=O)cc1 (stereo unspecified)	16.5 µM	41.4 µM	44.1 µM	40.4 µM	39.2 µM	> 21.3 µM	33.4 µM	–	–	–	–	–	–	–	–	–	–	–	–	–
CCOC(=O)C1=C(Nc2ccc(Cl)c(Cl)c2)OC/C1=N\NC(=O)Cc1ccccc1	> 100 µM	> 100 µM	> 100 µM	> 100 µM	> 100 µM	–	–	–	–	–	–	–	–	–	–	–	–	–	–	–
COc1cc(C2c3cc4c(cc3[C@@H](N(C)C)[C@H]3COC(=O)C23)OCO4)cc(OC)c1O (stereo partly specified)	> 100 µM	> 100 µM	> 100 µM	> 100 µM	> 100 µM	> 100 µM	68.1 µM	–	–	–	–	–	–	–	–	–	–	–	–	–
Cc1c(C(=O)CC(=O)C(=O)Nc2cc(Cl)ccc2Cl)[n+](=O)c2ccccc2n1[O-]	> 100 µM	> 100 µM	> 100 µM	> 100 µM	40.2 µM	63.6 µM	> 100 µM	–	–	–	–	–	–	–	–	–	–	–	–	–
CC1(O)CCC2(C)C(=O)C1(C)CCC21OCCO1 (stereo unspecified)	> 100 µM	> 100 µM	> 100 µM	> 100 µM	–	> 100 µM	> 100 µM	–	–	–	–	–	–	–	–	–	–	–	–	–
CN1C(=O)C2C=CC1C1CCC2N(C)C1=O (stereo unspecified)	> 100 µM	> 100 µM	> 100 µM	> 100 µM	> 100 µM	–	> 100 µM	–	–	–	–	–	–	–	–	–	–	–	–	–
CCCCN(CCCC)CCc1c(C)cc(C)c(CCN(CCCC)CCCC)c1O	42.6 µM	11.3 µM	16.8 µM	> 100 µM	29.7 µM	12.7 µM	–	2.78 µM	6.87 µM	3.11 µM	53.2 µM	3.24 µM	2.94 µM	2.69 µM	–	–	3.03 µM	2.86 µM	–	2.16 µM
O=C(CSc1nc(-c2ccccc2)c(-c2ccccc2)[nH]1)NNC(=S)Nc1ccccc1	> 100 µM	> 100 µM	> 100 µM	> 100 µM	> 100 µM	> 100 µM	> 100 µM	–	–	–	–	–	–	–	–	–	–	–	–	–
